According to US7390806B2, “Antibiotics containing borinic acid complexes and methods of use” (Anacor Pharmaceuticals, Inc., priority 2002, dated 2008):

Tests used:
Details in all cases: Table 1
[1] = system: E. faecium CT-26; assay: MIC determination, E. faecium CT-26; format: cell-based, Enterococcus faecium
[2] = system: S. aureus ATCC 29213; assay: MIC determination, S. aureus ATCC 29213; format: cell-based, Staphylococcus aureus
[3] = system: S. pneumoniae ATCC 6301; assay: MIC determination, S. pneumoniae ATCC 6301; format: cell-based, Streptococcus pneumoniae
[4] = system: E. faecalis ATCC 29212; assay: MIC determination, E. faecalis ATCC 29212; format: cell-based, Enterococcus faecalis
[5] = system: S. epidermidis ATCC 12228; assay: MIC determination, S. epidermidis ATCC 12228; format: cell-based, Staphylococcus epidermidis
[6] = system: M. catarrhalis ATCC 25238; assay: MIC determination, M. catarrhalis ATCC 25238; format: cell-based

| Molecule | MIC E. faecium CT-26 [1] [micrograms per ml] | MIC S. aureus ATCC 29213 [2] [micrograms per ml] | MIC S. pneumoniae ATCC 6301 [3] [micrograms per ml] | MIC E. faecalis ATCC 29212 [4] [micrograms per ml] | MIC S. epidermidis ATCC 12228 [5] [micrograms per ml] | MIC M. catarrhalis ATCC 25238 [6] [micrograms per ml] |
| --- | --- | --- | --- | --- | --- | --- |
| Oc1cccc2cccnc12 [Compound 89, 8-hydroxyquinoline] | 2 | 2 | 1 | 8 | 1 | 2 |
| Oc1cccc2cccnc12 [Compound 96, 8-hydroxyquinoline] | 2 | 2 | 2 | 8 | 1 | 1 |
| Oc1ccc(Cl)c2cccnc12 [Compound 49] | 2 | 2 | 1 | 16 | 1 | 0.25 |
| Oc1cccc2cccnc12 [Compound 69, 8-hydroxyquinoline] | 4 | 2 | 2 | 64 | 1 | 1 |
| Oc1cccc2cccnc12 [Compound 74, 8-hydroxyquinoline] | 2 | 2 | 2 | 32 | 1 | 1 |
| C=CB(Oc1cccc2cccnc12)c1cccc(C#N)c1 [Compound 40, (3-Cyanophenyl)vinylborinic acid 8-hydroxyquinoline ester] | 2 | 1 | 1 | 8 | 1 | 2 |
| Oc1cccc2cccnc12 [Compound 81, 8-hydroxyquinoline] | 4 | 2 | 2 | 8 | 1 | 2 |
| Oc1cccc2cccnc12 [Compound 52, 8-hydroxyquinoline] | 16 | 2 |  | 8 | 4 |  |
| Oc1cccc2cccnc12 [Compound 32, 8-hydroxyquinoline] | 2 | 1 | 1 | 16 | 1 | 2 |
| Bis(ethynyl)borinic acid 8-Hydroxyquinoline [Compound 44] | 2 | 1 | 1 | 16 | 1 | 0.25 |
| Oc1ccc(F)c2cccnc12 [Compound 58] | 4 | 2 | 2 | 8 | 2 | 0.5 |
